Patent US8912220B2 (priority 2009, dated 2014)

Columns and labels:
human 5-HT6 = target: T1, human 5-HT6 (Homo sapiens, UniProt P50406); assay: cAMP agonist and antagonist mode at 5-HT6 (HTRF, 1321N1 cells); assay type: cell-based; details: reference agonist, used in antagonist mode
T1 construct: expressed in transfected cells
Procedure: For assessment of 5-HT6 activity, 1321N1 cells stably expressing human 5-HT6 were grown to ˜90% confluence in a humidified atmosphere at 37° C. with 5% CO2 in F12 nutrient mixture (Ham) containing 10% dialyzed FBS, 400 µg/ml G418, 100 U/ml penicillin, and 100 µg/ml streptomycin. Medium was removed by aspiration, cells were washed 1× with PBS, and dissociated using PBS-EDTA for […] at room temperature. Cells were then diluted with PBS and pelleted by centrifugation for […] at 1000 rpm. Cells were suspended in assay buffer containing 3000 µM Ro-20-1724 (Sigma, St. Louis, Mo.), a phosphodiesterase inhibitor. Cells were seeded using a microplate dispenser at a density of 3,750 cells/well in a volume of 5 µl onto 384 well white wall/opaque bottom, small volume plates (Greiner Bio One, Monroe, N.C.).
Compound plates for cAMP assays were prepared at 8 mM in 100% DMSO and diluted in assay buffer to the appropriate test concentrations. The final in-well concentration of DMSO was 0.5%. Compounds were tested in duplicate wells using a range of twelve concentrations. […]
Homogeneous time-resolved fluorescence (HTRF) (cAMP dynamic 2 kit; Cisbio, Bedford, Mass.) was used to measure the formation of 3′,5′-cyclic adenosine monophosphate (cAMP) per the manufacturer's instructions. HTRF signal was measured at 620 and 665 nm using an EnVision Multilabel Plate Reader (PerkinElmer). […]

human 5-HT2C(VSV) = human 5-HT2C(VSV) (Homo sapiens, UniProt P28335, I156V/I160V/N158S); assay: cell-based
Chain of human 5-HT2C(VSV) (P28335 33-458 I156V/N158S/I160V limits assumed): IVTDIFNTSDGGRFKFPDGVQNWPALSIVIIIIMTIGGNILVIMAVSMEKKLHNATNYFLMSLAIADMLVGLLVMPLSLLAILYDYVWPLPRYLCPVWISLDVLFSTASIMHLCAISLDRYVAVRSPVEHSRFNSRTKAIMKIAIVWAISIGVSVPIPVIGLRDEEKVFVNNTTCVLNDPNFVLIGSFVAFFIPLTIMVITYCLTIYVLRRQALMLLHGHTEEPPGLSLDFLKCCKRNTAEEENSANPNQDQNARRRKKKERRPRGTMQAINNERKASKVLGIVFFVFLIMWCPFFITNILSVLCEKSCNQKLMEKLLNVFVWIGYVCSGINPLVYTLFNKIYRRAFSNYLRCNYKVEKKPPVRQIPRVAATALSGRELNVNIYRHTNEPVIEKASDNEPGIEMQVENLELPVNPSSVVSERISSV

T1 sequence (P50406 whole entry): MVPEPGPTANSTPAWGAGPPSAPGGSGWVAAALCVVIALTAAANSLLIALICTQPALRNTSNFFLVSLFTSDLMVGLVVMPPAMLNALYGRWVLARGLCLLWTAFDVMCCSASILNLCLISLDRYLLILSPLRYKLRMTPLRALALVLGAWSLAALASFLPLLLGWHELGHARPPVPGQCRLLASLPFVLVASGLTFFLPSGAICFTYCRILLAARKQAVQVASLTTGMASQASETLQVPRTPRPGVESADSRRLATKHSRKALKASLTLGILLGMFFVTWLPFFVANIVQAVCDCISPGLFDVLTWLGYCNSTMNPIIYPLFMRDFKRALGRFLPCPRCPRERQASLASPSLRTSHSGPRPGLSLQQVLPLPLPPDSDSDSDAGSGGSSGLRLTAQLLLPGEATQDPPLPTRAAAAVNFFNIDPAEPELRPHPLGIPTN

Compound | EC80 of 5-HT (human 5-HT6) | EC50 (human 5-HT2C(VSV))
NCCc1c[nH]c2ccc(O)cc12 [5-HT, 5-hydroxytryptamine] | 15 nM | 
COC(=O)/C=C/c1ccc(OC)c2c(CCN(C)C)cn(C)c12 [25-2, (E)-methyl 3-(3-(2-(dimethylamino)ethyl)-4-methoxy-1-methyl-1H-indol-7-yl)acrylate] |  | 1 to 500 nM
CCOc1c(F)ccc2c1c(CCN1CCOCC1)cn2C [30-23, 4-(2-(4-ethoxy-5-fluoro-1-methyl-1H-indol-3-yl)ethyl)morpholine] |  | 500 to 10000 nM
